Experiments:
langerin = conditions: previous results using more elaborate structures from this series (reference number not given); cited from earlier work
murine langerin CRD [1] = target: T1, murine langerin CRD (Mus musculus, UniProt Q8VBX4); assay: ITC titration of inhibitors into murine langerin CRD; type: binding; conditions: for Kd: ITC, 278.15 K; for Ligand efficiency (LE): based on the best affinities from both conditions (Ca2+ present/absent), Gibbs free energy / number of non-hydrogen atoms
T1 construct: Murine langerin CRD (amino acids: 191–331) was cloned; made in house; host or cells: E. coli BL21
T1 sequence (Q8VBX4 191-331): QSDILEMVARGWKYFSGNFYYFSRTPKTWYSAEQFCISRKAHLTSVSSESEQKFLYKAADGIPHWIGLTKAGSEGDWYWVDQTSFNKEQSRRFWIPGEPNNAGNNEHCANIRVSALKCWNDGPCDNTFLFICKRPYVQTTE
Method: Isothermal titration calorimetry experiments were performed using a PEAQ-ITC from Malvern or a Nano ITC from TA Instruments at 278.15 K. Langerin CRD in 25 mM MES/NaOH pH = 6.0 with 40 mM NaCl was injected in the sample cell (total volume 170–300 μL, receptor concentration 80–100 μM) of the device. The titrant was dissolved in the same buffer as the protein and added in 20 steps of 2.5 μL (first injection, 1.2 μL; total volume, 50 μL) while stirring at 350 rpm. The differential heat of each injection was measured and plotted against the molar ratio. All thermograms were integrated using NITPIC, the titration curves were fitted using SEDPHAT with error estimates using the confidence interval, and all figures were made in GUSSI.
For Ca^2+ titration, calcium chloride solutions were prepared in 25 mM MES/NaOH, 40 mM NaCl in the syringe. Langerin CRD was dialyzed against 25 mM MES/NaOH, 40 mM NaCl with 10 mM EDTA, and subsequently 25 mM MES/NaOH, 40 mM NaCl, to remove Ca^2+ before loading into the sample cell. The thermogram of Ca^2+ titration was fitted with the One-Site (independent) model. In the Ca^2+ present titration set up, the protein was in 25 mM MES/NaOH, 40 mM NaCl with 5 mM calcium chloride, and 5% DMSO in the sample cell. The ligand concentration was set to 0.1–2 mM, depending on the solubility, and dissolved in the same buffer as the protein. The raw data were fitted using either the One-Site (independent) model or the Competitive Binding model. Affinity and enthalpy data of Ca^2+ binding to langerin were extracted from the Ca^2+ titration and applied in the Competitive Binding model subsequently. In the Ca^2+ absent titration set up: ligand concentration was set to 0.1–2 mM, receptor concentration was set to 80–100 μM, both dissolved in 25 mM MES/NaOH, 40 mM NaCl with 5%DMSO. The thermogram was fitted with the one-site (independent) model.
Isothermal Titration Calorimetry (ITC)
The raw ITC data were initially processed using the default software provided by respective ITC instrument: MicroCal PEAQ-ITC Analysis Software 1.41 and Nanoanalyze Data Analysis 3.5.0. For MicroCal, the fitting model was set to One Set of Sites, with the following parameters: baseline option (time factor 5, points per injection 25), control parameter set to Fitted Offset, site value fixed at 1 and other parameters set to vary. For Nanoanalyze, blank titration files were used for area correction, fitting model set to independent, binding site n fixed at 1, and other parameters allowed to vary.
The raw data from both systems were further processed using NITPIC 2.1.0, baseline type set to Best Fit, with pre- and post-injection tail correction applied, integral significance level was adjusted based on the quality of each titration, and the outlier threshold was defined as twice of the standard deviation. The processed data were then analyzed in SEDPHAT 15.2b. For Ca2+ titration and ligand titration in the absence of Ca2+, the fitting model was set as Hetero Association A-B (Single-site model) with the global parameter log(Ka) and dHAB set as vary. For ligand titration in the presence of Ca2+, the fitting model was set as Competing B and C for A (Competitive binding model) with the global parameter log(KAC) and dHAC set as the data obtained from Ca2+ titration (4.336 and -8.2 kcal/mol), and log(KAB) and dHAB as vary. Experimental parameters for titration were defined as Titrating B into AC. Final presentation of the […]

murine langerin CRD [2] = target: T1, murine langerin CRD; assay: 43Ca NMR assay of Ca2+ binding to langerin in the presence of inhibitors; set-up: Chemical shift δ (Table S1, 43Ca NMR) / Linewidth ∆ν (Table S1, 43Ca NMR): unit not given here; conditions: Ca2+ + langerin + 400 μM inhibitor, pH 6.0; for Chemical shift δ (Table S1, 43Ca NMR): free 0.175, langerin-bound 0.116; for Linewidth ∆ν (Table S1, 43Ca NMR): free 0.89, langerin only 1.94; for Integral (relative to the ligand present free state) (Table S1, 43Ca NMR): free 1, langerin only 0.147
Method: ^43Ca NMR samples contain 50 μM langerin CRD in 25 mM MES/NaOH and 40 mM NaCl, pH 6.0, with 2.5 mM ^43CaCl2 (elemental calcium enriched to 57.9%, prepared from CaCO3 by hydrolysis with conc. HClaq followed by drying under vacuum; repeated three times), 400 μM compound, and 10% D2O. The negative controls contain the same components except for the protein. The positive control has 5 mM EDTA for fully chelating 2.5 mM Ca^2+ in 25 mM MES/NaOH and 40 mM NaCl. A spectrum width between 50 and −50 ppm was chosen. NMR spectra were measured at 25 °C on a 500 MHz Bruker NEO spectrometer equipped with a BBO probe. The carrier frequency was set to 0 ppm, and spectra were recorded with a recovery delay of […] and 1024 scans. All experiments were carried out with constant concentrations, volumes, receiver gains, and numbers of averaged FIDs.
Data processing and visualization were performed using TopSpin 4.4.0 (Bruker BioSpin GmbH, Rheinstetten, Germany) and MestReNova 10.0 (Mestrelab Research, Santiago de Compostela, Spain). Spectra were processed using an exponential window function with 1.00 Hz, zero-filled to a final size of 32,768 points (from an original FID size of 3,424), and baseline-corrected using spline. Parameter extraction was performed on data fitted without a window function to ensure an unbiased representation of the spectral features. […]

murine langerin CRD [3] = target: T1, murine langerin CRD; assay: 19F R2-filtered NMR assay with carbohydrate reporter ManNAcF3; type: binding; conditions: 25 mM MES/NaOH, 40 mM NaCl, 5 mM CaCl2, pH 6.0; 50 μM protein; read-out: K D of the carbohydrate reporter
Method: ^19F-NMR and ^19F-R2-filtered NMR experiments were conducted on a Bruker UltraShield 500 MHz spectrometer at 298 K. Spectra were processed in MestReNova 12.0, and data analysis was performed with GraphPad Prism version 10.2.0 for Windows (GraphPad Software, Boston, Massachusetts, USA, www.graphpad.com). Relaxation rates R 2,obs were determined with the CPMG pulse sequence, eq shown below. T represents the relaxation time, and I 0 is the integral at a T value of 0 s. The relaxation delay d 1 was set to 2.0 s, the acquisition time t acq was set to 0.87 s, and the frequency of 180° pulses νCPMG was set to 500 Hz. I=I0e^−R2,obsT 2
The KD value of the reporter was determined in a titration experiment at five concentrations [L]T with 50 μM protein. Samples were prepared via serial dilution. The K D and the R 2,b value of the reporter molecule were derived from eq by detection of the ^19F NMR relaxation rate R 2,obs in a two-parameter fit. R 2,b represents the relaxation rate in the bound state of the ligand, and p b is the bound fraction of the ligand, while [P]T represents the concentration of the receptor. The relaxation rate of the free ligand R 2,f was measured at 0.1 mM in the absence of the receptor. […]
Due to the complex equilibrium and competition effects present in the competitive binding experiments, EC50 values were utilized to quantify the inhibition degree. […]

[4] = Solubility assessment using 1H NMR; type: physicochemical; conditions: DSS reference, titrated from DMSO stock into protein buffer
Method: The compounds were dissolved in 100 mM DMSO and titrated into the same buffer solution where the protein was stored for different essays. DSS was used as the reference with a concentration of 100 µM. The integration and chemical shift of the ligand signals were monitored as indicators of potential aggregation. The solubility of compounds 1, 2, 3 were reported elsewhere. 1
Figure S1. Solubility assessment of compound 3 and 5 using 1H NMR. Compound […]
with the expected ratio relative to DSS, indicating its solubility at 1 mM in aqueous […]
(1 picture or pasted object on this page, not shown here)

murine langerin = conditions: in the presence of Ca^2+; previously reported, previous screening campaign (reference number not given); read-out: previously reported affinities; cited from earlier work
[5] = 5 mM CaCl2, 25 mM MES/NaOH pH 6.0, 40 mM NaCl, 5% DMSO, mean ± standard error of fit, read-out: K D [single-site model] (A + B↔AB), Ca^2+ present
[6] = 5 mM CaCl2, pH 6.0, 5% DMSO, competition between inhibitor and Ca2+ assumed, read-out: K D [competitive binding model] (A + B + C ↔ AB + C ↔ AC + B), Ca^2+ present
[7] = Ca2+-depleted protein, 25 mM MES/NaOH pH 6.0, 40 mM NaCl, 5% DMSO, read-out: K D [single-site model] (A + B ↔ AB), Ca^2+ absent

Row | SMILES | Competition with Ca^2+ (langerin) | Kd (murine langerin CRD [1]; [5]) [µM] | Kd (murine langerin CRD [1]; [6]) [µM] | Kd (murine langerin CRD [1]; [7]) [µM] | Ligand efficiency (LE) (murine langerin CRD [1]) [kcal·mol^–1·HA^–1] | Chemical shift δ (Table S1, 43Ca NMR) (murine langerin CRD [2]) | Linewidth ∆ν (Table S1, 43Ca NMR) (murine langerin CRD [2]) | Integral (relative to the ligand present free state) (Table S1, 43Ca NMR) (murine langerin CRD [2]) | Kd (murine langerin CRD [3]) [µM] | Solubility in aqueous buffer [4] | Kd (murine langerin) [µM] | solubility ([4]; aqueous protein storage buffer, aqueous buffer, kinetic from dmso stock) [µM]
1 | O=C(NCCc1cn2c(n1)SCC2)c1cnc2sccn2c1=O [N-(2-(2,3-dihydroimidazo[2,1-b]-thiazol-6-yl)-ethyl)-5-oxo-5H-thiazolo[3,2-a]-pyrimidine-6-carboxamide] | did not show competition with Ca^2+ | – | – | – | – | – | – | – | – | – | – | –
2 | NCCNC(=O)c1cnc2ccccn2c1=O [Compound 4, N-(2-Aminoethyl)-4-oxo-4H-pyrido[1,2-a]pyrimidine-3-carboxamide] | – | 8500 ± 2000 | 480 ± 70 | 200 ± 90 | 0.27 | 0.174 | 1.64 | 0.316 | – | – | – | –
3 | C#CCO[C@H]1O[C@H](CO)[C@@H](O)[C@H](O)[C@@H]1NC(=O)C(F)(F)F [ManNAcF3] | – | – | – | – | – | – | – | – | 28000 ± 5000 | – | – | –
4 | O=C(O)c1cnc2ccccn2c1=O [Compound 5, 4-oxo-4H-pyrido[1,2-a]pyrimidine-3-carboxylic acid] | – | – | – | – | – | – | – | – | – | partial solubility | – | –
5 | O=C(O)c1cnc2sccn2c1=O [Compound 1] | – | – | – | 1100 ± 300 | 0.31 | 0.173 | 2.80 | 0.355 | – | – | 700 | –
6 | Cc1csc2ncc(C(=O)O)c(=O)n12 [Compound 2] | – | 400 ± 70 | 81 ± 12 | 19 ± 2 | 0.46 | 0.154 | 1.79 | 0.324 | – | – | 1200 | –
7 | Cc1sc2ncc(C(=O)O)c(=O)n2c1C [Compound 3] | – | 150 ± 40 | 17 ± 4 | 53 ± 8 | 0.44 | 0.139 | 1.78 | 0.344 | – | – | 900 | ≥ 1000
